Like-named read-outs stand apart in the source and are kept apart here. Residues, ends and D or L forms follow the SMILES beside them. No end group written: not given here.
Legend:
[1] = test system: red blood cells (erythrocytes); assay: Hemolytic activity of the peptides (hemoglobin release, absorbance at 412 nm); format: cell-based
Experimental: Hemolysis as defined herein is an in vitro assay where the compounds tendency to lyse red blood cells is determined. Presumably, the compounds that are less hemolytic will be less toxic in vivo. Increasing amounts of compound are added to solutions containing red blood cells and left for a specified time and then lysis is determined spectrophotometrically by measuring hemoglobin release.
A small volume of a suspension of erythrocytes (about 100 million) is kept on ice with a specific amount of lytic peptide. The cells are then placed in a 37° C. water bath for 10 min, vortexed and centrifuged at 1000 g for 2 min. The supernatant was removed and the amount of hemoglobin that was released was determined by the samples' absorbance at 412 nm. Control values without added peptide were subtracted from the absorbance readings.
The numerical difference between the value of the mean of hemolysis and the mean of the activity is a useful way to determine those peptides having the most desired activity.

[2] = test system: bacteria; assay: Antibacterial activity of the peptides, broth microdilution MIC, mean activity (Table II); format: cell-based; conditions: overnight incubation (18 to 24 h)
Experimental: Minimum Inhibitory Concentration or MIC for the purpose of this invention is the lowest concentration of an antimicrobial that will inhibit the visible growth of a microorganism after overnight incubation. Minimum inhibitory concentrations are important in diagnostic laboratories to confirm resistance of microorganisms to an antimicrobial agent and also to monitor the activity of new antimicrobial agents. A MIC is generally regarded as the most basic laboratory measurement of the activity of an antimicrobial agent against an organism. MBC is defined as the lowest concentration of an antimicrobial agent needed to kill 99.9% of the initial organism inoculum. Presently, specific guidelines for interpretation are not available; therefore, a clinician knowledgeable in both bactericidal testing and infectious diseases should be available to interpret the results.
MICs were determined by the broth microdilution method described by the National Committee for Clinical Laboratory Standards (17). Serial twofold dilutions of each peptide solution were prepared (final volume, […]) in microtiter trays with appropriate medium. Each dilution series included control wells containing bacteria without peptide. A total of […] of the adjusted inoculum (100,000 organisms) was added to each well, and then the trays were incubated at
in ambient air overnight (18 to 24 h). The MIC of each peptide for each isolate was read as the lowest concentration of peptide that inhibited visible growth of the organism.
The above in vitro tests and analyses were conducted on a set of designed peptides of the present invention; and, for comparative purposes, naturally derived molecules.

[3] = erythrocytes, 37° C. for 10 min

## CC[C@H](C)[C@H](NC(=O)[C@@H]1CCCN1C(=O)[C@H](CCCNC(=N)N)NC(=O)[C@@H]1CCCN1C(=O)[C@H](Cc1cnc[nH]1)NC(=O)[C@H](CO)NC(=O)[C@@H](NC(=O)[C@@H]1CCCN1C(=O)[C@H](CCCNC(=N)N)NC(=O)[C@@H]1CCCN1C(=O)[C@H](CO)NC(=O)[C@H](Cc1ccc(O)cc1)NC(=O)[C@@H]1CCCN1C(=O)[C@H](CCCNC(=N)N)NC(=O)[C@@H]1CCCN1C(=O)[C@H](CCCCN)NC(=O)CN)[C@@H](C)O)C(=O)N[C@@H](CCCNC(=N)N)C(=O)N[C@H](C(=O)O)C(C)C [Drosocin] (H-GKPRPYSPRPTSHPRPIRV-OH)
[1]
  Mean of Hemolysis: 1.6 µM
[2]
  Mean Activity: 21 µM

## CC[C@H](C)[C@H](NC(=O)[C@H](CCCNC(=N)N)NC(=O)[C@@H]1CCCN1C(=O)[C@H](Cc1cnc[nH]1)NC(=O)[C@@H]1CCCN1C(=O)[C@@H]1CCCN1C(=O)[C@H](CCCNC(=N)N)NC(=O)[C@@H]1CCCN1C(=O)[C@H](CCC(N)=O)NC(=O)[C@@H]1CCCN1C(=O)[C@@H](NC(=O)[C@H](Cc1ccc(O)cc1)NC(=O)[C@@H](NC(=O)[C@@H]1CCCN1C(=O)[C@H](CCCNC(=N)N)NC(=O)[C@H](CC(N)=O)NC(=O)[C@H](CC(N)=O)NC(=O)CN)C(C)C)[C@@H](C)CC)C(=O)O [Apidaecin IA] (H-GNNRPVYIPQPRPPHPRI-OH)
[1]
  Mean of Hemolysis: 1.6 µM
[2]
  Mean Activity: 20.67 µM

## Histatin-5
[1]
  Mean of Hemolysis: 1.8 µM
[2]
  Mean Activity: 30 µM

## CC[C@H](C)[C@H](NC(=O)[C@H](CCCNC(=N)N)NC(=O)[C@H](C)NC(=O)[C@H](CCCCN)NC(=O)[C@@H](NC(=O)[C@H](CCCCN)NC(=O)[C@H](CC(C)C)NC(=O)[C@H](CCCNC(=N)N)NC(=O)[C@@H](NC(=O)[C@H](CCCNC(=N)N)NC(=O)[C@H](C)NC(=O)[C@H](CCCCN)NC(=O)[C@@H](NC(=O)[C@H](CCCNC(=N)N)NC(=O)[C@@H](N)Cc1ccccc1)C(C)C)[C@@H](C)CC)C(C)C)C(=O)N[C@@H](CCCNC(=N)N)C(=O)N[C@@H](CC(C)C)C(=O)O [AGM 179] (H-FRVKARIRLKVKARIRL-OH; N-terminus and C-terminus assumed)
[1]
  Mean of Hemolysis: 2.1 µM

## Pyrrhocoricin (D): naturally derived molecule tested for comparative purposes (VDKGSYLPRPTPPRPIYNRN; not fully specified; UniProt P37362 1-20, looked up)
[1]; [3]
  Mean of Hemolysis: 1.9 µM
[2]
  Mean Activity: 23.33 µM

## CC[C@H](C)[C@H](NC(=O)CN)C(=O)NCC(=O)N[C@@H](C)C(=O)N[C@H](C(=O)N[C@@H](CC(C)C)C(=O)N[C@@H](CCCCN)C(=O)N[C@H](C(=O)N[C@@H](CC(C)C)C(=O)N[C@H](C(=O)N[C@H](C(=O)NCC(=O)N[C@@H](CC(C)C)C(=O)N1CCC[C@H]1C(=O)N[C@@H](C)C(=O)N[C@@H](CC(C)C)C(=O)N[C@H](C(=O)N[C@@H](CO)C(=O)N[C@@H](Cc1c[nH]c2ccccc12)C(=O)N[C@H](C(=O)N[C@@H](CCCCN)C(=O)N[C@@H](CCCNC(=N)N)C(=O)N[C@@H](CCCCN)C(=O)N[C@@H](CCCNC(=N)N)C(=O)N[C@@H](CCC(N)=O)C(=O)N[C@@H](CCC(N)=O)C(N)=O)[C@@H](C)CC)[C@@H](C)CC)[C@@H](C)O)[C@@H](C)O)C(C)C)C(C)C [Melittin]
[1]; [3]
  Mean of Hemolysis: 100.8 µM
[2]
  Mean Activity: 1.33 µM

## Pyrrhocoricin (H): naturally derived molecule tested for comparative purposes (VDKGSYLPRPTPPRPIYNRN; UniProt P37362 1-20, looked up)
[1]; [3]
  Mean of Hemolysis: 1.6 µM
[2]
  Mean Activity: 26.67 µM

## LL-37
[1]
  Mean of Hemolysis: 5.1 µM
[2]
  Mean Activity: 1 µM

## Cecropin A
[2]
  Mean Activity: 3.83 µM

## Magainin I: Magainins: 23 amino acids in length, derived from the African Clawed Frog (GIGKFLHSAGKFGKAFVGEIMKS; Magainin-1; UniProt P11006 37-59, looked up)
[1]
  Mean of Hemolysis: 1.3 µM
[2]
  Mean Activity: 30 µM

## CC[C@H](C)[C@H](NC(=O)[C@H](CCCCN)NC(=O)[C@@H](NC(=O)[C@H](CCCNC(=N)N)NC(=O)[C@H](CC(C)C)NC(=O)[C@H](CCCNC(=N)N)NC(=O)[C@H](C)NC(=O)[C@H](CCCCN)NC(=O)[C@@H](NC(=O)[C@H](CCCCN)NC(=O)[C@@H](N)Cc1ccccc1)[C@@H](C)CC)C(C)C)C(=O)N[C@@H](CCCCN)C(=O)N[C@@H](C)C(=O)N[C@@H](CCCNC(=N)N)C(=O)N[C@@H](CC(C)C)C(=O)N[C@@H](CCCCN)C(=O)N[C@@H](CC(C)C)C(=O)O [AGM 176] (H-FKIKARLRVKIKARLKL-OH; N-terminus and C-terminus assumed)
[1]
  Mean of Hemolysis: 1.3 µM

## CC[C@H](C)[C@H](NC(=O)CNC(=O)[C@H](CC(N)=O)NC(=O)[C@H](CCCNC(=N)N)NC(=O)[C@@H](NC(=O)[C@H](CC(N)=O)NC(=O)[C@H](CCCNC(=N)N)NC(=O)CNC(=O)[C@H](CCSC)NC(=O)[C@H](CCCCN)NC(=O)[C@H](CCC(=O)O)NC(=O)[C@@H](NC(=O)[C@H](CCCCN)NC(=O)[C@H](CCCCN)NC(=O)[C@H](Cc1ccccc1)NC(=O)[C@@H](NC(=O)[C@H](CCCCN)NC(=O)[C@H](Cc1c[nH]c2ccccc12)NC(=O)[C@@H](N)CCCCN)C(C)C)[C@@H](C)CC)[C@@H](C)CC)C(=O)N[C@H](C(=O)N[C@@H](CCCCN)C(=O)N[C@@H](C)C(=O)NCC(=O)N1CCC[C@H]1C(=O)N[C@@H](C)C(=O)N[C@H](C(=O)N[C@@H](C)C(=O)N[C@H](C(=O)N[C@@H](CC(C)C)C(=O)NCC(=O)N[C@@H](CCC(=O)O)C(=O)N[C@@H](C)C(=O)N[C@@H](CCCCN)C(=O)N[C@@H](C)C(=O)N[C@@H](CC(C)C)C(N)=O)C(C)C)[C@@H](C)CC)C(C)C [Cecropin B] (H-KWKVFKKIEKMGRNIRNGIVKAGPAIAVLGEAKAL-NH2)
[1]
  Mean of Hemolysis: 1.2 µM

## Magainin II
[1]
  Mean of Hemolysis: 1.5 µM
[2]
  Mean Activity: 30 µM

## CC[C@H](C)[C@H](NC(=O)[C@H](CCCNC(=N)N)NC(=O)[C@H](CC(C)C)NC(=O)[C@H](CCCCN)NC(=O)[C@@H](NC(=O)[C@H](CCCCN)NC(=O)[C@H](C)NC(=O)[C@H](CCCNC(=N)N)NC(=O)[C@@H](NC(=O)[C@H](CCCNC(=N)N)NC(=O)[C@@H](N)Cc1ccccc1)[C@@H](C)CC)C(C)C)C(=O)N[C@@H](CCCNC(=N)N)C(=O)N[C@@H](C)C(=O)N[C@@H](CCCCN)C(=O)N[C@H](C(=O)N[C@@H](CCCNC(=N)N)C(=O)N[C@@H](CC(C)C)C(=O)O)C(C)C [AGM 178] (H-FRIRAKVKLRIRAKVRL-OH; N-terminus and C-terminus assumed)
[1]
  Mean of Hemolysis: 1.2 µM

## CC[C@H](C)[C@H](NC(=O)[C@H](CCCCN)NC(=O)[C@H](C)NC(=O)[C@H](CCCNC(=N)N)NC(=O)[C@H](CC(C)C)NC(=O)[C@H](CCCNC(=N)N)NC(=O)[C@@H](NC(=O)[C@H](CCCCN)NC(=O)[C@@H](NC(=O)[C@H](CCCCN)NC(=O)[C@H](C)NC(=O)[C@H](CCCNC(=N)N)NC(=O)[C@H](CC(C)C)NC(=O)[C@H](CCCCN)NC(=O)[C@@H](N)Cc1ccccc1)C(C)C)[C@@H](C)CC)C(=O)N[C@@H](CCCCN)C(=O)N[C@@H](CC(C)C)C(=O)O [AGM 155] (H-FKLRAKVKIRLRAKIKL-OH; N-terminus and C-terminus assumed)
[1]
  Mean of Hemolysis: 1.6 µM

## Indolicidin
[1]
  Mean of Hemolysis: 2 µM
[2]
  Mean Activity: 5.33 µM

— US9163066B2, “Antimicrobial lytic peptides” (priority 2010, dated 2015)
